Assay [1] relates to Lassa virus. The assay can be described thus: microbe, parasite or virus in culture. It is filed as cell-based.
Assay [2] concerns Lassa virus. The assay can be described thus: microbe, parasite or virus in culture. The assay is classed as cell-based. Particulars: Mammarenavirus lassaense, Vero C1008.
The mark [3] stands for this setting: Mammarenavirus lassaense, Huh-7.

Values joined by “and” are separate entries in the source; they are usually repeats but may differ in a detail not shown here. Equal values may be shown once. Where a name gives a salt, the structure may show the parent alone.

Take `CN(C)CCOc1ccc(/C(=C(/CCCl)c2ccccc2)c2ccccc2)cc1` [Toremifene citrate, reference compound]: the Inhibition in assay [1] (0.4688 µM) is 31.7829% and 32.93% and 31.98% and 27.3% and 32.75%. Besides, in assay [1] (0.9375 µM), the Inhibition is 22.38% and 19.16% and 30.38% and 25.19% and 18.19%. Further, the Inhibition in assay [1] (1.875 µM) was 18.84% and 15.13% and 24.79% and 16.6% and 19.82%. In assay [1] (3.75 µM), the Inhibition is 15.93% and 10.32% and 20.17% and 17.07% and 18.53%. For the same compound, in assay [1] (setting [3]), the inhibition at 0.4688 µM amounted to 37.4%, the inhibition at 0.9375 µM worked out at 29.9%, the inhibition at 1.875 µM came out at 20.9% and the inhibition at 3.75 µM was 16.3%.

Turning to `NC(=O)c1cn([C@@H]2O[C@H](CO)[C@@H](O)[C@H]2O)c2ncnc(N)c12` [Oya1, 4-amino-7-((2R,3R,4S,5R)-3,4-dihydroxy-5-(hydroxymethyl)tetrahydrofuran-2-yl)-7H-pyrrolo[2,3-d]pyrimidine-5-carboxamide], in assay [1] (0.0047 µM), the Inhibition is 33.96% and 28.083% and 24.36% and 25.62% and 25.65%. Besides, in assay [1] (0.0094 µM), the Inhibition was 26.74% and 30.9% and 23.28% and 15.83% and 22.14% and 20.065%. Further, in assay [1] (setting [3]), the inhibition at 0.0047 µM is 32.3%, the inhibition at 0.15 µM came to 79.9%, the inhibition at 0.3 µM was found to be 97.6% and the inhibition at 0.6 µM is 98.8%. For the same compound, in assay [2], the inhibition at 0.075 µM was 89.2%, the inhibition at 0.15 µM turned out to be 100%, the inhibition at 0.3 µM came out at 101% and the inhibition at 0.6 µM stood at 101%.

For the compound `Cl.NC(=O)c1cn([C@@H]2O[C@H](CO)[C@@H](O)[C@H]2O)c2ncnc(N)c12` [Oya2, 4-amino-7-((2R,3R,4S,5R)-3,4-dihydroxy-5-(hydroxymethyl)tetrahydrofuran-2-yl)-7H-pyrrolo[2,3-d]pyrimidine-5-carboxamide hydrochloride], the Inhibition in assay [1] (0.0047 µM, hydrochloride) is 28.74% and 26.14% and 27.5%; in assay [1] (0.0094 µM, hydrochloride) it was 21.1% and 20.68% and 22.57%.

The term Inhibition denotes the drop in the measured response relative to a control, in per cent. Low readings indicate a weak effect, high ones a strong effect. Broadly, the inhibition is the drop in the measured response relative to a control, in per cent.

These data come from patent US20230285434A1 (priority 2020, published 2023).
